The record followed here is ChEMBL document CHEMBL1137682, “Synthesis, characterization and structure-activity relationship analysis of novel depsides as potential antibacterials” (2009).

Assay type in all cases: functional
One test concerns Bacillus subtilis. Briefly: Antibacterial activity against Bacillus subtilis ATCC 6633 after 24 hrs by MTT assay. The settings on record: ATCC 6633, 24 h.
The test system of a further test is Staphylococcus aureus. In words: Antibacterial activity against Staphylococcus aureus ATCC 6538 after 24 hrs by MTT assay. As to conditions: ATCC 6538, 24 h.
For a further test, the system named is Enterobacter cloacae. Briefly: Antibacterial activity against Enterobacter cloacae ATCC 13047 after 24 hrs by MTT assay. As to conditions: ATCC 13047, 24 h.
In the next test the test system is Escherichia coli. In words: Antibacterial activity against Escherichia coli ATCC 35218 after 24 hrs by MTT assay. The settings on record: ATCC 35218, 24 h.
Another test concerns Enterococcus faecalis. Briefly: microbe, parasite or virus in culture. The settings on record: ATCC 9790, 24 h.
Another test has as its system Pseudomonas aeruginosa. In words: Antibacterial activity against sPseudomonas aeruginosa ATCC 13525 after 24 hrs by MTT assay. The settings on record: ATCC 13525, 24 h.

Values after ≈ are worked out from the molar mass of the structure shown. Where only a bound is given, the exact number is not on record here.

For the compound `COC(=O)Cc1ccccc1OC(=O)Cc1cccc(Br)c1`, the MIC in the test with Bacillus subtilis was 1.56 µg/mL (≈ 4.3 µM); in the test with Staphylococcus aureus, over 50 µg/mL; against Enterobacter cloacae, over 50 µg/mL; against Escherichia coli, 6.25 µg/mL (≈ 17.2 µM); against Enterococcus faecalis, 25 µg/mL (≈ 68.8 µM); against Pseudomonas aeruginosa, 25 µg/mL (≈ 68.8 µM).
In the case of `COC(=O)Cc1ccccc1OC(=O)c1ccccc1Cl`, the MIC against Bacillus subtilis was over 50 µg/mL; with Staphylococcus aureus, 3.12 µg/mL (≈ 10.3 µM); in the test with Enterobacter cloacae it was over 50 µg/mL; in the test with Escherichia coli, 25 µg/mL (≈ 82 µM); in the test with Enterococcus faecalis, 25 µg/mL (≈ 82 µM); against Pseudomonas aeruginosa, over 50 µg/mL.
For `CCOC(=O)Cc1ccccc1OC(=O)Cc1cccc(OC)c1`, the MIC is over 50 µg/mL with Bacillus subtilis; over 50 µg/mL against Staphylococcus aureus; over 50 µg/mL in the test with Enterobacter cloacae; 25 µg/mL (≈ 76.1 µM) against Escherichia coli; 12.5 µg/mL (≈ 38.1 µM) with Enterococcus faecalis; 6.25 µg/mL (≈ 19 µM) in the test on Pseudomonas aeruginosa.
`COC(=O)Cc1ccccc1OC(=O)c1ccc(C)cc1`: the MIC in the test with Bacillus subtilis was 12.5 µg/mL (≈ 44 µM); in the test with Staphylococcus aureus, 25 µg/mL (≈ 87.9 µM); with Enterobacter cloacae, 6.25 µg/mL (≈ 22 µM); in the test on Escherichia coli it was 3.12 µg/mL (≈ 11 µM); in the test on Enterococcus faecalis it was over 50 µg/mL; in the test on Pseudomonas aeruginosa, 12.5 µg/mL (≈ 44 µM).
With `NC[C@H]1O[C@H](O[C@H]2[C@H](O)[C@@H](O[C@H]3O[C@H](CO)[C@@H](O)[C@H](N)[C@H]3O)[C@H](N)C[C@@H]2N)[C@H](N)[C@@H](O)[C@@H]1O` [BEKANAMYCIN], the MIC with Bacillus subtilis was found to be 0.39 µg/mL (≈ 0.807 µM); in the test on Staphylococcus aureus, 1.56 µg/mL (≈ 3.23 µM); in the test with Enterobacter cloacae, 1.56 µg/mL (≈ 3.23 µM); against Escherichia coli it was 3.12 µg/mL (≈ 6.46 µM); with Enterococcus faecalis it was 3.12 µg/mL (≈ 6.46 µM); against Pseudomonas aeruginosa it was 3.12 µg/mL (≈ 6.46 µM).
As to `CCOC(=O)Cc1ccccc1OC(=O)Cc1ccc(F)cc1`, the MIC in the test with Bacillus subtilis was 12.5 µg/mL (≈ 39.5 µM); in the test with Staphylococcus aureus, 25 µg/mL (≈ 79 µM); against Enterobacter cloacae, 12.5 µg/mL (≈ 39.5 µM); in the test on Escherichia coli, 25 µg/mL (≈ 79 µM); against Enterococcus faecalis it was 6.25 µg/mL (≈ 19.8 µM); in the test on Pseudomonas aeruginosa, over 50 µg/mL.
For `CCOC(=O)Cc1ccccc1OC(=O)Cc1ccc(Cl)cc1`, the MIC against Bacillus subtilis is 6.25 µg/mL (≈ 18.8 µM); against Staphylococcus aureus, 6.25 µg/mL (≈ 18.8 µM); against Enterobacter cloacae, 6.25 µg/mL (≈ 18.8 µM); against Escherichia coli, over 50 µg/mL; in the test on Enterococcus faecalis, 12.5 µg/mL (≈ 37.6 µM); with Pseudomonas aeruginosa, 25 µg/mL (≈ 75.1 µM).
With `COC(=O)Cc1ccccc1OC(=O)c1cc(OC)cc(OC)c1`, the MIC was over 50 µg/mL with Bacillus subtilis; over 50 µg/mL against Staphylococcus aureus; over 50 µg/mL against Enterobacter cloacae; 25 µg/mL (≈ 75.7 µM) in the test on Escherichia coli; over 50 µg/mL against Enterococcus faecalis; 6.25 µg/mL (≈ 18.9 µM) with Pseudomonas aeruginosa.
As to `CCOC(=O)Cc1ccccc1OC(=O)c1cc(OC)cc(OC)c1`, the MIC was over 50 µg/mL with Bacillus subtilis; over 50 µg/mL against Staphylococcus aureus; 25 µg/mL (≈ 72.6 µM) in the test on Enterobacter cloacae; over 50 µg/mL against Escherichia coli; 25 µg/mL (≈ 72.6 µM) in the test on Enterococcus faecalis; 6.25 µg/mL (≈ 18.1 µM) in the test on Pseudomonas aeruginosa.
With `CC1(C)S[C@@H]2[C@H](NC(=O)Cc3ccccc3)C(=O)N2[C@H]1C(=O)O` [PENICILLIN G], the MIC is 1.56 µg/mL (≈ 4.67 µM) against Bacillus subtilis; 1.56 µg/mL (≈ 4.67 µM) in the test on Staphylococcus aureus; 3.12 µg/mL (≈ 9.35 µM) with Enterobacter cloacae; 6.25 µg/mL (≈ 18.7 µM) with Escherichia coli; 1.56 µg/mL (≈ 4.67 µM) in the test on Enterococcus faecalis; 6.25 µg/mL (≈ 18.7 µM) in the test with Pseudomonas aeruginosa.
With `CCOC(=O)Cc1ccccc1OC(=O)Cc1cccc(Cl)c1`, the MIC is 3.12 µg/mL (≈ 9.39 µM) in the test on Bacillus subtilis; 6.25 µg/mL (≈ 18.8 µM) in the test with Staphylococcus aureus; 25 µg/mL (≈ 75.1 µM) against Enterobacter cloacae; 6.25 µg/mL (≈ 18.8 µM) in the test on Escherichia coli; 6.25 µg/mL (≈ 18.8 µM) with Enterococcus faecalis; over 50 µg/mL in the test on Pseudomonas aeruginosa.
Regarding `CCOC(=O)Cc1ccccc1OC(=O)c1ccccc1Cl`, the MIC with Bacillus subtilis is over 50 µg/mL; with Staphylococcus aureus, 6.25 µg/mL (≈ 19.6 µM); against Enterobacter cloacae, over 50 µg/mL; against Escherichia coli, 6.25 µg/mL (≈ 19.6 µM); in the test on Enterococcus faecalis, over 50 µg/mL; against Pseudomonas aeruginosa it was 25 µg/mL (≈ 78.4 µM).
For `CCOC(=O)Cc1ccccc1OC(=O)c1ccc(Cl)cc1`, the MIC in the test with Bacillus subtilis was 25 µg/mL (≈ 78.4 µM); against Staphylococcus aureus, over 50 µg/mL; in the test with Enterobacter cloacae it was over 50 µg/mL; against Escherichia coli, over 50 µg/mL; against Enterococcus faecalis, 25 µg/mL (≈ 78.4 µM); against Pseudomonas aeruginosa, over 50 µg/mL.
With `CCOc1ccc(CC(=O)Oc2ccccc2CC(=O)OC)cc1OCC`, the MIC against Bacillus subtilis was over 50 µg/mL; against Staphylococcus aureus, 1.56 µg/mL (≈ 4.19 µM); with Enterobacter cloacae, 3.12 µg/mL (≈ 8.39 µM); in the test with Escherichia coli, 1.56 µg/mL (≈ 4.19 µM); against Enterococcus faecalis, 3.12 µg/mL (≈ 8.39 µM); against Pseudomonas aeruginosa, 3.12 µg/mL (≈ 8.39 µM).
On to `COC(=O)Cc1ccccc1OC(=O)c1ccc(Cl)cc1`, for which the MIC in the test with Bacillus subtilis is 25 µg/mL (≈ 82 µM); with Staphylococcus aureus, over 50 µg/mL; in the test on Enterobacter cloacae, 25 µg/mL (≈ 82 µM); in the test with Escherichia coli, over 50 µg/mL; in the test on Enterococcus faecalis, 12.5 µg/mL (≈ 41 µM); against Pseudomonas aeruginosa it was 25 µg/mL (≈ 82 µM).
Take `CCOC(=O)Cc1ccccc1OC(=O)c1ccc(C)cc1`: the MIC with Bacillus subtilis is 25 µg/mL (≈ 83.8 µM); in the test on Staphylococcus aureus, over 50 µg/mL; with Enterobacter cloacae, 6.25 µg/mL (≈ 20.9 µM); with Escherichia coli, 3.12 µg/mL (≈ 10.5 µM); in the test with Enterococcus faecalis it was over 50 µg/mL; in the test on Pseudomonas aeruginosa, 12.5 µg/mL (≈ 41.9 µM).
As for `CCOC(=O)Cc1ccccc1OC(=O)Cc1cccc(Br)c1`, the MIC with Bacillus subtilis is 1.56 µg/mL (≈ 4.14 µM); with Staphylococcus aureus, over 50 µg/mL; in the test with Enterobacter cloacae, over 50 µg/mL; with Escherichia coli, 6.25 µg/mL (≈ 16.6 µM); in the test with Enterococcus faecalis, over 50 µg/mL; in the test on Pseudomonas aeruginosa it was 25 µg/mL (≈ 66.3 µM).
For the compound `CN[C@H](CC(C)C)C(=O)N[C@H]1C(=O)N[C@@H](CC(N)=O)C(=O)N[C@H]2C(=O)N[C@H]3C(=O)N[C@H](C(=O)N[C@H](C(=O)O)c4cc(O)cc(O)c4-c4cc3ccc4O)[C@H](O)c3ccc(c(Cl)c3)Oc3cc2cc(c3O[C@@H]2O[C@H](CO)[C@@H](O)[C@H](O)[C@H]2O[C@H]2C[C@](C)(N)[C@H](O)[C@H](C)O2)Oc2ccc(cc2Cl)[C@H]1O.Cl` [VANCOMYCIN HYDROCHLORIDE], the MIC in the test with Bacillus subtilis was 0.39 µg/mL; against Staphylococcus aureus it was 0.78 µg/mL; in the test on Enterobacter cloacae it was over 50 µg/mL; against Escherichia coli, over 50 µg/mL; against Enterococcus faecalis, 1.56 µg/mL; against Pseudomonas aeruginosa, over 50 µg/mL.
Take `CN(C)[C@@H]1C(O)=C(C(N)=O)C(=O)[C@@]2(O)C(O)=C3C(=O)c4c(O)cccc4[C@@](C)(O)[C@H]3C[C@@H]12` [TETRACYCLINE]: the MIC against Bacillus subtilis is 1.56 µg/mL (≈ 3.51 µM); against Staphylococcus aureus, 1.56 µg/mL (≈ 3.51 µM); against Enterobacter cloacae, 1.56 µg/mL (≈ 3.51 µM); with Escherichia coli, 6.25 µg/mL (≈ 14.1 µM); with Enterococcus faecalis, 0.78 µg/mL (≈ 1.76 µM); in the test on Pseudomonas aeruginosa, 1.56 µg/mL (≈ 3.51 µM).
